From patent US11773094B2, “Farnesoid X receptor agonists and uses thereof” (Metacrine, Inc., priority 2018, dated 2023) come the findings set out here.

In this test the target is T1, hFXR (Homo sapiens, UniProt Q96RI1).
T1 construct: expressed in transfected cells; host or cells: CV-1 cells
T1 sequence (Q96RI1 1-486): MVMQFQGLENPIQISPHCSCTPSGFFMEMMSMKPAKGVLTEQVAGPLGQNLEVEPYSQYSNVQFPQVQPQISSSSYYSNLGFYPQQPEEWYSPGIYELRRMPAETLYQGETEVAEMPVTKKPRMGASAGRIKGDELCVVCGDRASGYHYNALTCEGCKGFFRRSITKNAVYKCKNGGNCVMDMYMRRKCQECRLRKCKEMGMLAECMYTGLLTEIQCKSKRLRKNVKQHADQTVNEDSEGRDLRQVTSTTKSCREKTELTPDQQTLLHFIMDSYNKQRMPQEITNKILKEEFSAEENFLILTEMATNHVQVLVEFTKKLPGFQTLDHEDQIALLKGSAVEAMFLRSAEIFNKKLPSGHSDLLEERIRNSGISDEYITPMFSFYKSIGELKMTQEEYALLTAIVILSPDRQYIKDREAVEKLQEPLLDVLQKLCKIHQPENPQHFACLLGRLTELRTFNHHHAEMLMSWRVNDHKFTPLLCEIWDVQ
T1 sequence (P19793 1-462 partner): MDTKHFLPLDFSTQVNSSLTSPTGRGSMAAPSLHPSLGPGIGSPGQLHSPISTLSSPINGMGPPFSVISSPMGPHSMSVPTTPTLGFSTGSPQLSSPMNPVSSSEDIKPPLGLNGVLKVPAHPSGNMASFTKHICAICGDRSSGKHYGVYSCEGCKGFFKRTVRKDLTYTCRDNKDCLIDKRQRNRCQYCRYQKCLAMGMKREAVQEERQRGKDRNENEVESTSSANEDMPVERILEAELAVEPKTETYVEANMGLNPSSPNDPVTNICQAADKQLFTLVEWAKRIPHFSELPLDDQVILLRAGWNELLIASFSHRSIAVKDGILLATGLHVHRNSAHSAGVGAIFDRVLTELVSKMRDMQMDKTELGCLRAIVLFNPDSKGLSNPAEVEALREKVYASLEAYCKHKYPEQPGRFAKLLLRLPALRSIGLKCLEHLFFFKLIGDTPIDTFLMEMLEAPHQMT
Nature of the test: In Vitro FXR Assay (TK): TK-ECRE-luc reporter in transfected CV-1 cells. It is filed as cell-based. The following applies: CV-1 cells transfected with hFXR, hRXR, pCMX-YFP, 18 hrs incubation, luminescence. The method in brief:
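Reporter gene assay: CV-1 cells co-expressing hFXR, hRXR, TK-ECRE-luc and pCMX-YFP after overnight transfection in charcoal-stripped serum. Treatment with serially diluted compounds lasted 18 hrs at 37 °C, followed by cell lysis and a luminescence measurement.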
Broadly, the EC50 is the concentration needed to bring the measured effect to its halfway point. `COc1c(C)cc(C23CCC(CN(c4nccc(-c5cnn(C(C)(C)C)c5)n4)C(=O)[C@H]4CC[C@H](OC(=O)N5CC(O)C5)CC4)(CC2)CC3)cc1C` [Compound 3.15, 4-((4-(1-(tert-Butyl)-1H-pyrazol-4-yl)pyrimidin-2-yl)((4-(4-methoxy-3,5-dimethylphenyl)bicyclo[2.2.2]octan-1-yl)methyl)carbamoyl) (trans-cyclohexyl) 3-hydroxyazetidine-1-carboxylate] returned an EC50 of 0.01 to 1 µM.
In the case of `COc1ccc(C23CCC(CN(c4cc(-c5cnn(C(C)(C)C)c5)ccn4)C(=O)[C@H]4CC[C@H](OC(=O)NC5CC[S+]([O-])CC5)CC4)(CC2)CC3)cc1C` (some centres unmarked) [Compound 2.38, (1r,4r)-4-((4-(1-(tert-Butyl)-1H-pyrazol-4-yl)pyridin-2-yl)((4-(4-methoxy-3-methylphenyl)bicyclo[2.2.2]octan-1-yl)methyl)carbamoyl)cyclohexyl (1-oxidotetrahydro-2H-thiopyran-4-yl)carbamate] it was 0.01 to 1 µM; in that of `CN(C)c1ccc(C23CCC(CN(c4cc(-c5cnn(C(C)(C)C)c5)ccn4)C(=O)[C@H]4CC[C@H](OC(=O)N5CC(O)C5)CC4)(CC2)CC3)cn1` [Compound 3.06, 4-((4-(1-(tert-Butyl)-1H-pyrazol-4-yl)pyridin-2-yl)((4-(6-(dimethylamino)pyridin-3-yl)bicyclo[2.2.2]octan-1-yl)methyl)carbamoyl) (trans-cyclohexyl) 3-hydroxyazetidine-1-carboxylate], 0.01 to 1 µM.
In the case of `COc1ccc([C@H]2CC[C@H](CN(c3cc(-c4cnc(C(C)(C)C)s4)ccn3)C(=O)[C@H]3CC[C@H](OC(=O)N4CC(O)C4)CC3)CC2)cc1C` [Compound 1.01, trans-4-((4-(2-(tert-Butyl)thiazol-5-yl)pyridin-2-yl)(((trans)-4-(4-methoxy-3-methylphenyl)cyclohexyl)methyl)carbamoyl) cyclohexyl 3-hydroxyazetidine-1-carboxylate] it was 0.01 to 1 µM; in that of `COc1ccc(C23CCC(CN(c4cc(-c5ccn(C(C)(C)C)n5)ccn4)C(=O)[C@H]4CC[C@H](OC(=O)N5CC(O)C5)CC4)(CC2)CC3)cc1C` [Compound 4.10, 4-((4-(1-(tert-Butyl)-1H-pyrazol-3-yl)pyridin-2-yl)((4-(4-methoxy-3-methylphenyl)bicyclo[2.2.2]octan-1-yl)methyl)carbamoyl) cyclohexyl trans-3-hydroxyazetidine-1-carboxylate], 0.01 to 1 µM; in that of `COc1ccc(C23CCC(CN(c4cc(-c5coc(C(C)(C)C)n5)ccn4)C(=O)[C@H]4CC[C@H](OC(=O)N5CC(S(C)(=O)=O)C5)CC4)(CC2)CC3)cc1C` [Compound 2.13, 4-((4-(2-(tert-Butyl)oxazol-4-yl)pyridin-2-yl)((4-(4-methoxy-3-methylphenyl)bicyclo[2.2.2]octan-1-yl)methyl)carbamoyl) (trans-cyclohexyl) 3-(methylsulfonyl)azetidine-1-carboxylate], at most 0.01 µM.
In the case of `COc1ccc([C@H]2CC[C@H](CN(c3cc(-c4coc(C(C)(C)C)n4)ccn3)C(=O)[C@H]3CC[C@H](OC(=O)N4CC(O)C4(C)C)CC3)CC2)cc1C` (stereo partly drawn) [Compound 1.05, trans-4-((4-(2-(tert-Butyl)oxazol-4-yl)pyridin-2-yl)(((trans)-4-(4-methoxy-3-methylphenyl)cyclohexyl)methyl)carbamoyl) cyclohexyl 3-hydroxy-2,2-dimethylazetidine-1-carboxylate] it was 0.01 to 1 µM; in that of `COc1ccc([C@H]2CC[C@H](CN(c3cc(-c4coc(C(C)(C)C)n4)ccn3)C(=O)[C@H]3CC[C@H](OC(=O)NC4CCOCC4)CC3)CC2)cc1C` [Compound 1.07, trans-4-((4-(2-(tert-Butyl)oxazol-4-yl)pyridin-2-yl)(((trans)-4-(4-methoxy-3-methylphenyl)cyclohexyl)methyl)carbamoyl) cyclohexyl (tetrahydro-2H-pyran-4-yl)carbamate], 0.01 to 1 µM.
`COc1ccc([C@]23CC[C@@](CN(c4cc(-c5cnn(C(C)(C)C)c5)ccn4)C(=O)[C@H]4CC[C@H](OC(=O)N5CC(CO)C5)CC4)(CC2)CC3)cc1C` [Compound 3.02, 4-((4-(1-(tert-Butyl)-1H-pyrazol-4-yl)pyridin-2-yl)(trans(4-(4-methoxy-3-methylphenyl)bicyclo[2.2.2]octan-1-yl)methyl)carbamoyl) (trans-cyclohexyl) 3-(hydroxymethyl)azetidine-1-carboxylate] displayed an EC50 of at most 0.01 µM.
In the case of `CCC(CC)(CC)n1cc(-c2ccnc(N(CC34CCC(c5ccc(OC)c(C)c5)(CC3)CC4)C(=O)[C@H]3CC[C@H](OC(=O)N4CC(O)C4)CC3)c2)cn1` [Compound 4.08, 4-((4-(1-(3-Ethylpentan-3-yl)-1H-pyrazol-4-yl)pyridin-2-yl)((4-(4-methoxy-3-methylphenyl)bicyclo[2.2.2]octan-1-yl)methyl)carbamoyl) cyclohexyl trans-3-hydroxyazetidine-1-carboxylate] it was 0.01 to 1 µM; in that of `COc1ccc(C23CCC(CN(c4cc(-c5cnn(C(C)(C)C)c5)ccn4)C(=O)[C@H]4CC[C@H](OC(=O)NC5COC5)CC4)(CC2)CC3)cc1C` [Compound 2.28, 4-((4-(1-(tert-Butyl)-1H-pyrazol-4-yl)pyridin-2-yl)((4-(4-methoxy-3-methylphenyl)bicyclo[2.2.2]octan-1-yl)methyl)carbamoyl) (trans-cyclohexyl) oxetan-3-ylcarbamate], at most 0.01 µM; in that of `COc1ccc(C23CCC(CN(c4cc(-c5coc(C(C)(C)C)n5)ccn4)C(=O)[C@H]4CC[C@H](OC(=O)N5CCC(N(C)C)C5)CC4)(CC2)CC3)cc1C` (stereo partly drawn) [Compound 2.16, 4-((4-(2-(tert-Butyl)oxazol-4-yl)pyridin-2-yl)((4-(4-methoxy-3-methylphenyl)bicyclo[2.2.2]octan-1-yl)methyl)carbamoyl)cyclohexyl 3-(dimethylamino)pyrrolidine- trans-1-carboxylate], 0.01 to 1 µM.
In the case of `COc1ccc(C23CCC(CN(c4cc(-c5cnn(C(C)(C)C)c5)ccn4)C(=O)[C@H]4CC[C@H](OC(=O)N5CC[C@H](O)C5)CC4)(CC2)CC3)cc1C` [Compound 2.34, (S)-4-((4-(1-(tert-Butyl)-1H-pyrazol-4-yl)pyridin-2-yl)((4-(4-methoxy-3-methylphenyl)bicyclo[2.2.2]octan-1-yl)methyl)carbamoyl) cyclohexyl trans-3-hydroxypyrrolidine-1-carboxylate] it was at most 0.01 µM; in that of `COc1ccc(C23CCC(CN(c4cc(-c5cnn(C(C)(C)C)c5)ccn4)C(=O)[C@H]4CC[C@H](OC(=O)N5CC[C@@H](O)C5)CC4)(CC2)CC3)cc1C` [Compound 2.33, (R)-4-((4-(1-(tert-Butyl)-1H-pyrazol-4-yl)pyridin-2-yl)((4-(4-methoxy-3-methylphenyl)bicyclo[2.2.2]octan-1-yl)methyl)carbamoyl) cyclohexyl trans-3-hydroxypyrrolidine-1-carboxylate], at most 0.01 µM; in that of `COc1ccc(C23CCC(CN(c4cc(-c5cnc(C(C)(C)C)s5)ccn4)C(=O)[C@H]4CC[C@H](OC(=O)N5CC(O)C5)CC4)(CC2)CC3)cc1C` [Compound 3.07, 4-((4-(2-(tert-Butyl)thiazol-5-yl)pyridin-2-yl)((4-(4-methoxy-3-methylphenyl)bicyclo[2.2.2]octan-1-yl)methyl)carbamoyl) cyclohexyl trans-3-hydroxyazetidine-1-carboxylate], at most 0.01 µM.
In the case of `COc1ccc(C23CCC(CN(c4cc(-c5cnn(C(C)(C)C)c5)ccn4)C(=O)[C@H]4CC[C@H](OC(=O)N5CC(O)C5)CC4)(CC2)CC3)cc1C` [Compound 3, 4-((4-(1-(tert-Butyl)-1H-pyrazol-4-yl)pyridin-2-yl)((4-(4-methoxy-3-methylphenyl)bicyclo[2.2.2]octan-1-yl)methyl)carbamoyl)cyclohexyl 3-hydroxyazetidine-trans-1-carboxylate] it was at most 0.01 µM; in that of `COc1ccc(C23CCC(CN(c4cc(-c5cnn(C(C)(C)C)c5)ccn4)C(=O)[C@H]4CC[C@H](OC(=O)N5CC(OCCO)C5)CC4)(CC2)CC3)cc1C` [Compound 2.25, 4-((4-(1-(tert-Butyl)-1H-pyrazol-4-yl)pyridin-2-yl)((4-(4-methoxy-3-methylphenyl)bicyclo[2.2.2]octan-1-yl)methyl)carbamoyl) (trans-cyclohexyl) 3-(2-hydroxyethoxy)azetidine-1-carboxylate], at most 0.01 µM.
